Assays:
M. intracellulare [1] = assay: In vivo chemotherapeutic activity against M. intracellulare in the Beige mouse model (Example II); set-up: species or system M. intracellulare (host: Beige mice); settings: 10 mg/kg daily orally; 1, 2 and 4 weeks (P 0.05), FIG. 2
M. intracellulare [2] = assay: In vitro activity against serovars of M. intracellulare, radiometric (Bactec) method; format: cell-based
Procedure: A study of the effect of CQQ on different serovars of M. intracellulare in vitro was performed using the radiometric (Bactec) method. Maximum growth index (GI) of 999 was determined (for control models) in terms of the number of days necessary for the culture to reach this stage. GI is measured using the special instrument which reads the amount of ^14 C labelled CO2 liberated from the strains using the ^14 C labelled substrates.

M. tuberculosis H37 Rv [3] = assay: In vivo activity against M. tuberculosis infections in C57Bl/6 mice (Example VII); set-up: species or system M. tuberculosis (host: C57Bl/6 mice)
Procedure: Animal studies were performed using the mouse model. Mice are accepted as excellent experimental models for human mycobacterial diseases. While earlier literature (see review by Youmans etc.), have established C57Bl/6 mice models for in vivo studies with M. tuberculosis, mouse models for experimental M. intracellulare infections were difficult until recently (see review by Gangadharam). The Beige mouse (C57Bl/6/bg/bg) model established by Gangadharam et al is now used for studies with M. intracellulare. In the in vivo studies described below, C57Bl/6 and Beige mice models are used for M. tuberculosis and M. intracellulare infections, respectively.
In chemotherapy studies, various concentrations of CQQ and ansamycin (LM 427), were used. Lung and spleen tissue samples from the animal models were used. "CFU" refers to the "colony forming units" observed when culturing these samples.
In all of the following experiments, spleens and lungs were removed aseptically from the subject animals, at different periods of challenge. The organs were ground and samples of the ground organs were plated in aliquots on 7H11 agar medium. If the bacteria were present, they would grow, forming CFUs. The plates were incubated at 37° C. (with 5% CO2 for M. tuberculosis), and read after three weeks incubation.
CFUs were counted by visual enumeration. If increased magnification was necessary, this was done using a plate microscope.
In this experiment C57Bl/6 mice were infected intravenously with M. tuberculosis H37 Rv strain and one group was treated daily orally with 10 mg/kg of CQQ and the others as untreated infected control.

[4] = Acute toxicity in C57Bl/6 mice; format: in vivo; settings: mouse, in vivo, ip; C57Bl/6 mice, intraperitoneal
Procedure: (§1) Studies were performed to obtain toxicity data. […] Extrapolating, this corresponds to an LD50 of approximately 40 gr for a 70 kg subject. For chronic toxicity studies both C57Bl/6 and Beige mice were administered doses of 40 mg/kg/day, and intraperitoneal doses over 30 mg/kg for more than 60 days.

C57Bl/6 mice = assay: Acute toxicity in C57Bl/6 mice; format: in vivo; settings: 70 kg subject, extrapolated from mouse LD50
Procedure: as §1

C57Bl/6 and Beige mice = assay: Chronic toxicity in C57Bl/6 and Beige mice; format: in vivo; settings: 40 mg/kg/day, and intraperitoneal doses over 30 mg/kg, more than 60 days
Procedure: as §1

blood clotting = assay: Effect on blood clotting; format: in vivo; settings: oral, intraperitoneal and intramuscular, varying amounts, FIG. 8
Procedure: Due to its relationship to Vitamin K, there was some concern as to the effect CQQ would have on blood clotting. Varying amounts of CQQ were administered orally, intraperitoneally, and intramuscularly.

lymphocytes = assay: Effect on chromosomal structures in lymphocytes; format: cell-based, human; settings: 0.5 ml of 10 mcg/ml solution
Procedure: In order to determine the effect of CQQ on chromosomes, blood was collected from a healthy volunteer, and lymphocytes were isolated from the sample. These were cultivated in a folate deficient medium, and after approximately 24 hours of cultivation, 0.5 ml of a solution of CQQ (10 mcg/ml) was added to the culture. Incubation at 37° C. for 72 hours followed. The lymphocytes were then harvested, following routine laboratory porocedures and were stained with Giemsa stain.

M. intracellulare [5] = settings: Gangadharam et al.; cited from earlier work
M. tuberculosis = settings: Gangadharam et al.; cited from earlier work
M. tuberculosis H37 Rv [6] = assay: In vitro activity against growing culture of M. tuberculosis in Middlebrook 7H9 broth; settings: 2 mcg/ml, FIG. 7
[7] = 8.0 mcg/ml, serovar 3, strain 7-17
[8] = 8.0 mcg/ml, serovar 3, strain 9-75
[9] = 8.0 mcg/ml, serovar 3, strain 12-1
[10] = 8.0 mcg/ml, serovar 3, strain 971-8
[11] = 8.0 mcg/ml, serovar 4, strain 5-13
[12] = 8.0 mcg/ml, serovar 4, strain 7-55
[13] = 8.0 mcg/ml, serovar 4, strain 8-50
[14] = 8.0 mcg/ml, serovar 4, strain TMC1463
[15] = 8.0 mcg/ml, serovar 9, strain 2-10
[16] = 8.0 mcg/ml, serovar 9, strain 6-38
[17] = 8.0 mcg/ml, serovar 9, strain 7-25
[18] = 8.0 mcg/ml, serovar 9, strain 1784-286
[19] = 8.0 mcg/ml, serovar 14, strain 7-3
[20] = 8.0 mcg/ml, serovar 14, strain 7-43
[21] = 8.0 mcg/ml, serovar 14, strain BOONE
[22] = 8.0 mcg/ml, serovar 14, strain P-39
[23] = 16.0 mcg/ml, serovar 3, strain 7-17
[24] = 16.0 mcg/ml, serovar 3, strain 9-75
[25] = 16.0 mcg/ml, serovar 3, strain 12-1
[26] = 16.0 mcg/ml, serovar 3, strain 971-8
[27] = 16.0 mcg/ml, serovar 4, strain 5-13
[28] = 16.0 mcg/ml, serovar 4, strain 7-55
[29] = 16.0 mcg/ml, serovar 4, strain 8-50
[30] = 16.0 mcg/ml, serovar 4, strain TMC1463
[31] = 16.0 mcg/ml, serovar 9, strain 2-10
[32] = 16.0 mcg/ml, serovar 9, strain 6-38
[33] = 16.0 mcg/ml, serovar 9, strain 7-25
[34] = 16.0 mcg/ml, serovar 9, strain 1784-286
[35] = 16.0 mcg/ml, serovar 14, strain 7-3
[36] = 16.0 mcg/ml, serovar 14, strain 7-43
[37] = 16.0 mcg/ml, serovar 14, strain BOONE
[38] = 16.0 mcg/ml, serovar 14, strain P-39

O=C1C(NC2CCCCCCC2)=CC(=O)c2ncccc21 [CQQ, 6-cyclo octylamino-5,8-quinoline quinone]
Antimycobacterial activity, CFU counts from spleen and lungs vs controls (M. intracellulare [1]): considerable antimycobactgerial activity with statistically significant differences
Day maximum GI achieved (M. intracellulare [2]; [7]): 2 days
Maximum GI (M. intracellulare [2]; [7]): 16
Day maximum GI achieved (M. intracellulare [2]; [8]): 2 days
Maximum GI (M. intracellulare [2]; [8]): 22
Day maximum GI achieved (M. intracellulare [2]; [9]): 2 days
Maximum GI (M. intracellulare [2]; [9]): 4
Day maximum GI achieved (M. intracellulare [2]; [10]): 3 days
Maximum GI (M. intracellulare [2]; [10]): 20
Day maximum GI achieved (M. intracellulare [2]; [11]): 1 days
Maximum GI (M. intracellulare [2]; [11]): 14
Day maximum GI achieved (M. intracellulare [2]; [12]): 2 days
Maximum GI (M. intracellulare [2]; [12]): 7
Day maximum GI achieved (M. intracellulare [2]; [13]): 2 days
Maximum GI (M. intracellulare [2]; [13]): 15
Day maximum GI achieved (M. intracellulare [2]; [14]): 1 days
Maximum GI (M. intracellulare [2]; [14]): 6
Day maximum GI achieved (M. intracellulare [2]; [15]): 1 days
Maximum GI (M. intracellulare [2]; [15]): 14
Day maximum GI achieved (M. intracellulare [2]; [16]): 1 days
Maximum GI (M. intracellulare [2]; [16]): 13
Day maximum GI achieved (M. intracellulare [2]; [17]): 4 days
Maximum GI (M. intracellulare [2]; [17]): 33
Day maximum GI achieved (M. intracellulare [2]; [18]): 1 days
Maximum GI (M. intracellulare [2]; [18]): 9
Day maximum GI achieved (M. intracellulare [2]; [19]): 2 days
Maximum GI (M. intracellulare [2]; [19]): 5
Day maximum GI achieved (M. intracellulare [2]; [20]): 1 days
Maximum GI (M. intracellulare [2]; [20]): 1
Day maximum GI achieved (M. intracellulare [2]; [21]): 1 days
Maximum GI (M. intracellulare [2]; [21]): 13
Day maximum GI achieved (M. intracellulare [2]; [22]): 1 days
Maximum GI (M. intracellulare [2]; [22]): 21
Inhibition of the strains (M. intracellulare [2]; 16.0 and 8.0 mcg/ml): Complete inhibition
Day maximum GI achieved (M. intracellulare [2]; [23]): 1 days
Maximum GI (M. intracellulare [2]; [23]): 5
Day maximum GI achieved (M. intracellulare [2]; [24]): 1 days
Maximum GI (M. intracellulare [2]; [24]): 14
Day maximum GI achieved (M. intracellulare [2]; [25]): 2 days
Maximum GI (M. intracellulare [2]; [25]): 6
Day maximum GI achieved (M. intracellulare [2]; [26]): 1 days
Maximum GI (M. intracellulare [2]; [26]): 8
Day maximum GI achieved (M. intracellulare [2]; [27]): 1 days
Maximum GI (M. intracellulare [2]; [27]): 4
Day maximum GI achieved (M. intracellulare [2]; [28]): 2 days
Maximum GI (M. intracellulare [2]; [28]): 4
Day maximum GI achieved (M. intracellulare [2]; [29]): 1 days
Maximum GI (M. intracellulare [2]; [29]): 6
Day maximum GI achieved (M. intracellulare [2]; [30]): 1 days
Maximum GI (M. intracellulare [2]; [30]): 5
Day maximum GI achieved (M. intracellulare [2]; [31]): 1 days
Maximum GI (M. intracellulare [2]; [31]): 12
Day maximum GI achieved (M. intracellulare [2]; [32]): 1 days
Maximum GI (M. intracellulare [2]; [32]): 6
Day maximum GI achieved (M. intracellulare [2]; [33]): 1 days
Maximum GI (M. intracellulare [2]; [33]): 7
Day maximum GI achieved (M. intracellulare [2]; [34]): 1 days
Maximum GI (M. intracellulare [2]; [34]): 5
Day maximum GI achieved (M. intracellulare [2]; [35]): 1 days
Maximum GI (M. intracellulare [2]; [35]): 4
Day maximum GI achieved (M. intracellulare [2]; [36]): 1 days
Maximum GI (M. intracellulare [2]; [36]): 9
Day maximum GI achieved (M. intracellulare [2]; [37]): 1 days
Maximum GI (M. intracellulare [2]; [37]): 7
Day maximum GI achieved (M. intracellulare [2]; [38]): 1 days
Maximum GI (M. intracellulare [2]; [38]): 22
Effect on GI rates of all M. intracellulare strains (M. intracellulare [2]; both concentrations (16.0 and 8.0 mcg/ml)): dramatic decrease in GI rates for all M. intracellulare strains
Mean CFU counts from spleens and lungs vs untreated controls (M. tuberculosis H37 Rv [3]; 10 mg/kg daily orally, end of 4 weeks): considerable reduction
Mean colony forming unit (CFU) count, lung (M. tuberculosis H37 Rv [3]; 10 mg/kg daily orally, end of 4 weeks, control 6.42): 4.21 LOG CFU
Mean colony forming unit (CFU) count, spleen (M. tuberculosis H37 Rv [3]; 10 mg/kg daily orally, end of 4 weeks, control 6.90): 4.90 LOG CFU
Antituberculosis effectiveness (M. tuberculosis H37 Rv [3]; conclusion from Table 2): clearly an effective antituberculosis agent
LD50 [4]: 564 mg/kg
LD50 extrapolated to a 70 kg subject (C57Bl/6 mice): approximately 40 gr
Visible toxic manifestation or death (C57Bl/6 and Beige mice): No visible toxic manifestation or death
Blood clotting time (blood clotting): little change in blood clotting time
Assessment of chromosomal breaks (lymphocytes; 72 hours): fully within the normal limits
Total number of chromosomal breaks (lymphocytes; 72 hours at 37° C., at least 50 cells counted): 7
Cells with chromosomal breaks (lymphocytes; 72 hours at 37° C., of at least 50 cells counted): 5
In vitro effectiveness against M. intracellulare (M. intracellulare [5]): effective against M. intracellulare and M. tuberculosis in vitro
In vitro effectiveness against M. tuberculosis (M. tuberculosis): effective against M. intracellulare and M. tuberculosis in vitro
Inhibitory activity against tubercle bacilli (M. tuberculosis H37 Rv [6]): remarkable inhibitory activity

Source: US4963565A, “In vivo treatment of mycobacterial infections with 6-cyclo octylamino-5,8-quinoline quinone” (priority 1986, dated 1990)
